From article PMC3199286 (ACS chemical biology, 2011)

Experiments:
PRMT1 [1] = biological target: T1, PRMT1 (Homo sapiens, UniProt Q99873); experiment: Active PRMT1 in MCF-7 nuclear extracts after estrogen stimulation; type: cell-based; details: 10 nM E2, 5 minute time point
PRMT1 [2] = biological target: T1, PRMT1; experiment: Active PRMT1 in MCF-7 cytoplasmic extracts after estrogen stimulation; type: cell-based
PRMT1 [3] = details: ref [15]–[17]; cited from earlier work

T1 sequence (Q99873 whole entry): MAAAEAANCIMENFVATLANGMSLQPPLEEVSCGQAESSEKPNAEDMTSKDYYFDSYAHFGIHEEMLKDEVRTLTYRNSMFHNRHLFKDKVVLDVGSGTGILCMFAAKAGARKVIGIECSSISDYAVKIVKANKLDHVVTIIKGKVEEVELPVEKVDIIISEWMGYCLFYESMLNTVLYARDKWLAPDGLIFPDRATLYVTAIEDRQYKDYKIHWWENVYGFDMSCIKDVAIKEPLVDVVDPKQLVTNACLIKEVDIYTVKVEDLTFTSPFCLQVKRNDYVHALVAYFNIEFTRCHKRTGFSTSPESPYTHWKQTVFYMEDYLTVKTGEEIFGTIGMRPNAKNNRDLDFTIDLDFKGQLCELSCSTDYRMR

| Substance | maximum reduction of active PRMT1 in nucleus (PRMT1 [1]) [fold] | increase of active PRMT1 in cytoplasm (PRMT1 [2]; 10 nM E2, 5 minutes after addition, MCF-7) [fold] | time of maximum active PRMT1 in cytoplasm (PRMT1 [2]; 10 nM E2, MCF-7) [min] | time of return of active cytoplasmic PRMT1 to basal levels (PRMT1 [2]; 10 nM E2, MCF-7) | total PRMT1 levels in cytosolic and nuclear extracts (loading control) after estrogen (PRMT1 [2]; 10 nM E2, MCF-7, 10% loading control, Figure 6A lower panel) | PRMT1 substrate quality (PRMT1 [3]) |
| --- | --- | --- | --- | --- | --- | --- |
| estrogen | 3 | 2.5 | 10 | ~ 15 minutes | remain constant | – |
| AcH4-21: peptide which consists of the first 21 amino acids of histone H4, highly efficient PRMT1 substrate | – | – | – | – | – | highly efficient PRMT1 substrate |
